# Legend:
# Biomphalaria alexandrina [1] = test: Molluscicidal activity against Biomphalaria alexandrina assessed as number of dead snail at 20 ppm after 24 hrs allowed to recover for an additional 24 hrs; format: organism-based; details: in vivo
# Aspergillus fumigatus = test: Antifungal activity against Aspergillus fumigatus ATCC 13073 after 48 hrs by microplate broth assay; format: functional; details: ATCC 13073, 48 h
# Biomphalaria alexandrina [2] = test: Molluscicidal activity against Biomphalaria alexandrina assessed as number of dead snail at 10 ppm after 24 hrs; format: organism-based; details: in vivo
# Biomphalaria alexandrina [3] = test: Molluscicidal activity against Biomphalaria alexandrina assessed as number of dead snail at 20 ppm after 48 hrs; format: organism-based; details: in vivo
# Biomphalaria alexandrina [4] = test: Molluscicidal activity against Biomphalaria alexandrina assessed as number of dead snail at 20 ppm after 24 hrs; format: organism-based; details: in vivo
# Biomphalaria alexandrina [5] = test: Molluscicidal activity against Biomphalaria alexandrina assessed as number of dead snail at 10 ppm after 24 hrs allowed to recover for an additional 24 hrs; format: organism-based; details: in vivo
# Candida albicans = test: Antifungal activity against Candida albicans ATCC 10259 after 24 hrs by microplate broth assay; format: functional; details: ATCC 10259, 24 h
# Cryptococcus neoformans = test: Antifungal activity against Cryptococcus neoformans ATCC 36556 after 48 hrs by microplate broth assay; format: functional; details: ATCC 36556, 48 h
# Biomphalaria alexandrina [6] = test: Molluscicidal activity against Biomphalaria alexandrina assessed as number of dead snail at 10 ppm after 48 hrs; format: organism-based; details: in vivo
smiles,measurement,setting,value
C[C@@H]1O[C@@H](O[C@H]2[C@H](O[C@H]3CC[C@]4(C)[C@H]5CC=C6[C@@H]7CC(C)(C)CC[C@]7(C(=O)O)CC[C@@]6(C)[C@]5(C)CC[C@H]4[C@]3(C)C=O)OC[C@H](O[C@@H]3O[C@H](CO)[C@@H](O)[C@H](O)[C@H]3O)[C@@H]2O)[C@H](O)[C@H](O)[C@H]1O [SALZMANNIANOSIDE A],Activity,Biomphalaria alexandrina [1],Active
same,MIC,Aspergillus fumigatus,≥ 125 µg/mL
same,Activity,Biomphalaria alexandrina [2],Not Active
same,Activity,Biomphalaria alexandrina [3],100%
same,Activity,Biomphalaria alexandrina [4],Active
same,Activity,Biomphalaria alexandrina [5],Not Active
same,MIC,Candida albicans,≤ 16 µg/mL
same,MIC,Cryptococcus neoformans,≤ 8 µg/mL
same,Activity,Biomphalaria alexandrina [6],0%
C[C@@H]1O[C@@H](O[C@H]2[C@H](O[C@H]3CC[C@@]4(C)[C@@H](CC[C@]5(C)[C@@H]4CC=C4[C@@H]6CC(C)(C)CC[C@]6(C(=O)O)CC[C@]45C)[C@]3(C)CO)OC[C@H](O[C@@H]3O[C@H](CO)[C@@H](O)[C@H](O)[C@H]3O)[C@@H]2O)[C@H](O)[C@H](O[C@@H]2OC[C@H](O)[C@H](O)[C@H]2O)[C@H]1O [SALZMANNIANOSIDE B],MIC,Aspergillus fumigatus,≥ 250 µg/mL
same,Activity,Biomphalaria alexandrina [3],70%
same,Activity,Biomphalaria alexandrina [5],Active
same,MIC,Candida albicans,≥ 125 µg/mL
same,MIC,Cryptococcus neoformans,≤ 8 µg/mL
same,Activity,Biomphalaria alexandrina [6],100%
C[C@@H]1O[C@@H](O[C@H]2[C@H](O[C@H]3CC[C@@]4(C)[C@@H](CC[C@]5(C)[C@@H]4CC=C4[C@@H]6CC(C)(C)CC[C@]6(C(=O)O)CC[C@]45C)[C@]3(C)CO)OC[C@H](O[C@@H]3O[C@H](CO)[C@@H](O)[C@H](O)[C@H]3O)[C@@H]2O)[C@H](O)[C@H](O)[C@H]1O [HEDERACOLCHISIDE A],Activity,Biomphalaria alexandrina [1],Active
same,MIC,Aspergillus fumigatus,≥ 250 µg/mL
same,Activity,Biomphalaria alexandrina [3],100%
same,Activity,Biomphalaria alexandrina [4],Active
same,MIC,Candida albicans,≤ 16 µg/mL
same,MIC,Cryptococcus neoformans,≤ 8 µg/mL
same,Activity,Biomphalaria alexandrina [6],90%
C[C@@H]1O[C@@H](O[C@H]2[C@H](O[C@H]3CC[C@]4(C)[C@H]5CC=C6[C@@H]7CC(C)(C)CC[C@]7(C(=O)O)CC[C@@]6(C)[C@]5(C)CC[C@H]4C3(C)C)OC[C@H](O[C@@H]3O[C@H](CO)[C@@H](O)[C@H](O)[C@H]3O)[C@@H]2O)[C@H](O)[C@H](O)[C@H]1O [HEDERACOLCHISIDE A1],Activity,Biomphalaria alexandrina [1],Active
same,Activity,Biomphalaria alexandrina [2],Active
same,Activity,Biomphalaria alexandrina [3],100%
same,Activity,Biomphalaria alexandrina [4],Active
same,Activity,Biomphalaria alexandrina [5],Active
same,Activity,Biomphalaria alexandrina [6],100%

# — ChEMBL document CHEMBL1158245, “Antifungal and molluscicidal saponins from Serjania salzmanniana” (J Nat Prod, 1996)
